SMILES strings stand for the structures. Converted amounts (≈) assume the structure as drawn.

These results are taken from ChEMBL document CHEMBL4002609, “Sulfonamide-based non-alkyne LpxC inhibitors as Gram-negative antibacterial agents” (Bioorg Med Chem Lett, 2017).

The subject of one series is Klebsiella pneumoniae. As to the kind of experiment: Antibacterial activity against Klebsiella pneumoniae ATCC 13883 by agar dilution method. Type of series: functional.
The test system of the next series is Pseudomonas aeruginosa. As to the kind of experiment: Antibacterial activity against Pseudomonas aeruginosa PAO 4009 by agar dilution method. It is filed as functional.
Another series relates to Escherichia coli. As to the kind of experiment: Antibacterial activity against Escherichia coli TG1 by agar dilution method. Type of series: functional.
The subject of another series is Staphylococcus aureus. As to the kind of experiment: Antibacterial activity against Staphylococcus aureus ATCC 29213 by agar dilution method. It is filed as functional.
The target of series [1] is T1, UDP-3-O-acyl-N-acetylglucosamine deacetylase (Escherichia coli K-12, UniProt P0A725).
T1 sequence (P0A725 whole entry): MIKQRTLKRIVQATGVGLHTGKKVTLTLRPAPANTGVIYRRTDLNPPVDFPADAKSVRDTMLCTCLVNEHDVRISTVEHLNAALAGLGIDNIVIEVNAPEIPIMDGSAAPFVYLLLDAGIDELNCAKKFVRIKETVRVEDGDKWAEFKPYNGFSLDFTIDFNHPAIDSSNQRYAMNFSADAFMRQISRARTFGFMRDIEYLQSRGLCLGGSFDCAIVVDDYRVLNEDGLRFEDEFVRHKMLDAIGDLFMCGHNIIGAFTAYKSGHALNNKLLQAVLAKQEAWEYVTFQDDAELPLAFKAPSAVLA
As to the kind of experiment: Inhibition of Escherichia coli LpxC using UDP-3-O-(R-3-hydroxymyristoyl)GlcNAc as substrate after 60 mins by OPA reagent based fluorescence assay.

In a further series the target is Cytochrome P450 2C9 (Homo sapiens, UniProt P11712). As to the kind of experiment: Time-dependent inhibition of CYP2C9 (unknown origin). Type of series: ADME.
The next series has as its target Cytochrome P450 2D6 (Homo sapiens, UniProt P10635). As to the kind of experiment: Time-dependent inhibition of CYP2D6 (unknown origin). Type of series: ADME.
The target in another series is Cytochrome P450 2C19 (Homo sapiens, UniProt P33261). As to the kind of experiment: Time-dependent inhibition of CYP2C19 (unknown origin). It is filed as ADME.
The next series has as its target Cytochrome P450 3A4 (Homo sapiens, UniProt P08684). As to the kind of experiment: Time-dependent inhibition of CYP3A4 (unknown origin). Type of series: ADME.
The target of the next series is T2, Cytochrome P450 1A2 (Homo sapiens, UniProt P05177).
T2 sequence (P05177 whole entry): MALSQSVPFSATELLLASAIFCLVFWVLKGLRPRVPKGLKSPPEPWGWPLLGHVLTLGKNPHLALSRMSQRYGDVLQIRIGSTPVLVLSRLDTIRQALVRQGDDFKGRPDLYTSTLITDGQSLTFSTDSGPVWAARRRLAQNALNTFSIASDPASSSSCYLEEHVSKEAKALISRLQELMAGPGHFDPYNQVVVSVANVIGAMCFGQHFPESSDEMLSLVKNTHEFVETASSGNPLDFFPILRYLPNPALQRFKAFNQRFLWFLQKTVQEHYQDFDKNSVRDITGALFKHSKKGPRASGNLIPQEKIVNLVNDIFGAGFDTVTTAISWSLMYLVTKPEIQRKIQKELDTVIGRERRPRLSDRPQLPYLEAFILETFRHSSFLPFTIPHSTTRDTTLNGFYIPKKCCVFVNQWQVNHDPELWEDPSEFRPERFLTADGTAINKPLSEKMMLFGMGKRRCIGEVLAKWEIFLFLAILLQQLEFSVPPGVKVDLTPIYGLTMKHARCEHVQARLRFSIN
As to the kind of experiment: Time-dependent inhibition of CYP1A2 (unknown origin). Type of series: ADME.

Sequence of Cytochrome P450 2C19 (P33261 whole entry): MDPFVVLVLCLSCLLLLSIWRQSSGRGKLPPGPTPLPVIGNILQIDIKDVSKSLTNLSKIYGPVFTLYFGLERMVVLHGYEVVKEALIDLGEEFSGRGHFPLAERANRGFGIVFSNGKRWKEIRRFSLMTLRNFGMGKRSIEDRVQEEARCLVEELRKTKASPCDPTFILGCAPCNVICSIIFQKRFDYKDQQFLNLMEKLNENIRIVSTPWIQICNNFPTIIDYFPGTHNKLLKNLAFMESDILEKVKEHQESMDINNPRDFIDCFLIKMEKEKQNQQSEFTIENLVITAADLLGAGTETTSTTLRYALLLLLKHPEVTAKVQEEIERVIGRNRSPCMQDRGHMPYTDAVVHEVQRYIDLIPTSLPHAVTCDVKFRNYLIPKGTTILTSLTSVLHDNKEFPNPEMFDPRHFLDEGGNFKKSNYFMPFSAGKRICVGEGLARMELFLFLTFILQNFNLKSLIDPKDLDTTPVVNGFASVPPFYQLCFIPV
Sequence of Cytochrome P450 2D6 (P10635 whole entry): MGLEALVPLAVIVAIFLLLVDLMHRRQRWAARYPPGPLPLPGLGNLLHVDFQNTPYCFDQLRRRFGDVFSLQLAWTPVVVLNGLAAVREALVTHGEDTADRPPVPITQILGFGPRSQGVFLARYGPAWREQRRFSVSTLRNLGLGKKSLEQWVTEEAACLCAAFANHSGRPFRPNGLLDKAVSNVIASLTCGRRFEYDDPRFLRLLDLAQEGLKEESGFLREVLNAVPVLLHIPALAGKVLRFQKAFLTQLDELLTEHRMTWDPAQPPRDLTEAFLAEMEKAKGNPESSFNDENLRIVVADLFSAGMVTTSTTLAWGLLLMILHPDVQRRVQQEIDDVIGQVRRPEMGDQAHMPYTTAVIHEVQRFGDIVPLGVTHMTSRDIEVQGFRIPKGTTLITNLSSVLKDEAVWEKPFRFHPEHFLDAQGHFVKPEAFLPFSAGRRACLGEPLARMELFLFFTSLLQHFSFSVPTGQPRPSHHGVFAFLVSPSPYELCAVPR
Sequence of Cytochrome P450 3A4 (P08684 whole entry): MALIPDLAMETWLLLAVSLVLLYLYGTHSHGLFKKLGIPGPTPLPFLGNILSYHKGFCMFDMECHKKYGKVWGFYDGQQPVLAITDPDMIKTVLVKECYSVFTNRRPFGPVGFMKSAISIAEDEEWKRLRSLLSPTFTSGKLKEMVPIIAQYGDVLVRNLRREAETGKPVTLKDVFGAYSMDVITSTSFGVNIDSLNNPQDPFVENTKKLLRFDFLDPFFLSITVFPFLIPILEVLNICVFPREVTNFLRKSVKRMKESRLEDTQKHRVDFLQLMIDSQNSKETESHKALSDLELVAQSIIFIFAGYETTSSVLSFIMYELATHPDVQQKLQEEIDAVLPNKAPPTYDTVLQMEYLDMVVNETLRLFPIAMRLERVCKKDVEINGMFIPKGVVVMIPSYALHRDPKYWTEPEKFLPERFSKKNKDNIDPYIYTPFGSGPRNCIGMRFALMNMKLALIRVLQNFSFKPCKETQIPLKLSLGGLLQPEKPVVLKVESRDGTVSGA
Sequence of Cytochrome P450 2C9 (P11712 whole entry): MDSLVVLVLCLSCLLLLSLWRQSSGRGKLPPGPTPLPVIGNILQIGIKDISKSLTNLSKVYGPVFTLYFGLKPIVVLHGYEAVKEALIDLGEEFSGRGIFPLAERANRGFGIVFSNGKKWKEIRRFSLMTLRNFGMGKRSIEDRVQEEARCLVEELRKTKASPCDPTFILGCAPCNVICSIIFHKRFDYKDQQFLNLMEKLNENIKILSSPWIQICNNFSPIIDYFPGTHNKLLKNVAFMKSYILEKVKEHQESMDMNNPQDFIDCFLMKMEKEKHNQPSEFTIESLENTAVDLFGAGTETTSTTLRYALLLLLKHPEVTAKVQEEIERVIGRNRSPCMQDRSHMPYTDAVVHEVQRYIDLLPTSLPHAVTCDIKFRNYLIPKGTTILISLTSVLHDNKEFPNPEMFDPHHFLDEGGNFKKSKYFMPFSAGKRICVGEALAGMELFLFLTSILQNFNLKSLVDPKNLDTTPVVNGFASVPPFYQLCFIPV

Consider `C[C@@H](O)[C@H](NC(=O)c1ccc(C#Cc2ccc(CN3CCOCC3)cc2)cc1)C(=O)NO`, for which the MIC in the series on Klebsiella pneumoniae was 0.25 µg/mL (≈ 0.571 µM); against Pseudomonas aeruginosa, 0.5 µg/mL (≈ 1.14 µM); against Escherichia coli, 0.125 µg/mL (≈ 0.286 µM); with Staphylococcus aureus, > 128 µg/mL.
For `CC(C)(NS(C)(=O)=O)[C@H](NC(=O)c1ccc(-c2ccccc2)cc1)C(=O)NO`, the minimum inhibitory concentration (MIC) against Klebsiella pneumoniae stood at 64 µg/mL (≈ 158 µM); against Pseudomonas aeruginosa, 1 µg/mL (≈ 2.47 µM); against Escherichia coli, 2 µg/mL (≈ 4.93 µM). In addition, the IC50 in series [1] was determined as 1200 nM.
As for `CC(C)(NS(C)(=O)=O)[C@H](NC(=O)c1ccc(-c2cc3ccccc3o2)cc1)C(=O)NO`, the minimal inhibitory concentration (MIC) against Klebsiella pneumoniae was 1 µg/mL (≈ 2.24 µM); against Pseudomonas aeruginosa it was 1 µg/mL (≈ 2.24 µM); against Escherichia coli, 0.25 µg/mL (≈ 0.561 µM); in the series with Staphylococcus aureus it was 64 µg/mL (≈ 144 µM). Also, in series [1], the half-maximal inhibitory concentration (IC50) came out at 81 nM.
With `CC(C)(NS(C)(=O)=O)[C@H](NC(=O)c1ccc(-c2cc3cc(F)ccc3o2)cc1)C(=O)NO`, the MIC came out at 1 µg/mL (≈ 2.16 µM) in the series with Klebsiella pneumoniae, 0.5 µg/mL (≈ 1.08 µM) in the series on Pseudomonas aeruginosa, 0.25 µg/mL (≈ 0.539 µM) against Escherichia coli and 32 µg/mL (≈ 69 µM) against Staphylococcus aureus. Further, the 50% inhibitory concentration (IC50) in [1] is 100 nM.
Take `CC(C)(NS(C)(=O)=O)[C@H](NC(=O)c1ccc(-c2cc3ccc(OCCO)cc3o2)cc1)C(=O)NO`: the MIC in the series with Klebsiella pneumoniae was 8 µg/mL (≈ 15.8 µM); with Pseudomonas aeruginosa, 4 µg/mL (≈ 7.91 µM); in the series with Escherichia coli, 1 µg/mL (≈ 1.98 µM); against Staphylococcus aureus, > 128 µg/mL. In addition, in [1], the half-maximal inhibitory concentration (IC50) was determined as 10 nM.
With `CC(C)(NS(C)(=O)=O)[C@H](NC(=O)c1ccc(-c2cc3ccc(O)cc3o2)cc1)C(=O)NO`, the MIC in the series with Klebsiella pneumoniae is 8 µg/mL (≈ 17.3 µM); in the series on Pseudomonas aeruginosa it was 2 µg/mL (≈ 4.33 µM); in the series with Escherichia coli, 1 µg/mL (≈ 2.17 µM); against Staphylococcus aureus, > 64 µg/mL. Moreover, the IC50 in [1] worked out at 140 nM.
Turning to `Cc1ccc(-c2ccc(C(=O)N[C@H](C(=O)NO)C(C)(C)NS(C)(=O)=O)nc2)cc1`, the MIC in the series with Klebsiella pneumoniae was > 128 µg/mL; against Pseudomonas aeruginosa, 32 µg/mL (≈ 76.1 µM); in the series with Escherichia coli, 32 µg/mL (≈ 76.1 µM). Further, in [1], the IC50 is > 10000 nM.
For `CC(C)(NS(C)(=O)=O)[C@H](NC(=O)c1ccc(-c2cc3ccc(F)cc3o2)cc1)C(=O)NO`, the minimum inhibitory concentration (MIC) with Klebsiella pneumoniae came out at 1 µg/mL (≈ 2.16 µM); against Pseudomonas aeruginosa it was 0.5 µg/mL (≈ 1.08 µM); in the series on Escherichia coli it was 0.25 µg/mL (≈ 0.539 µM); in the series with Staphylococcus aureus, 64 µg/mL (≈ 138 µM). Further, in [1], the 50% inhibitory concentration (IC50) is 79 nM.
As for `CC(C)(NS(C)(=O)=O)[C@H](NC(=O)c1ccc(-c2cc3ccccn3n2)cc1)C(=O)NO`, the MIC in the series with Klebsiella pneumoniae is > 128 µg/mL; against Pseudomonas aeruginosa it was 4 µg/mL (≈ 8.98 µM); in the series with Escherichia coli it was 64 µg/mL (≈ 144 µM); with Staphylococcus aureus it was > 128 µg/mL. Further, the IC50 in [1] is > 10000 nM.
As for `Cc1ccc(-c2ccc(C(=O)N[C@H](C(=O)NO)C(C)(C)NS(C)(=O)=O)cc2)cc1`, the MIC in the series on Klebsiella pneumoniae was 4 µg/mL (≈ 9.54 µM); against Pseudomonas aeruginosa, 0.5 µg/mL (≈ 1.19 µM); in the series on Escherichia coli, 1 µg/mL (≈ 2.38 µM); in the series on Staphylococcus aureus, > 128 µg/mL. Moreover, the TDI entry at Cytochrome P450 2C9, on Cytochrome P450 2D6, at Cytochrome P450 2C19, at Cytochrome P450 3A4 and on Cytochrome P450 1A2 was “Active” throughout. The compound further came in with a half-inhibitory concentration (IC50) in series [1] of 420 nM.
Regarding `CC(C)(NS(C)(=O)=O)[C@H](NC(=O)c1ccc(-c2nc3ccccc3o2)cc1)C(=O)NO`, the minimal inhibitory concentration (MIC) in the series on Klebsiella pneumoniae was 8 µg/mL (≈ 17.9 µM); in the series with Pseudomonas aeruginosa, 4 µg/mL (≈ 8.96 µM); against Escherichia coli, 1 µg/mL (≈ 2.24 µM); against Staphylococcus aureus it was > 128 µg/mL. In [1], this compound gave an IC50 of 410 nM.
The corresponding values for `CC(C)(NS(C)(=O)=O)[C@H](NC(=O)c1ccc(-c2cc3cncnc3o2)cc1)C(=O)NO` are > 128 µg/mL, 32 µg/mL (≈ 71.5 µM), 128 µg/mL (≈ 286 µM), > 128 µg/mL and > 10000 nM.
Take `Cc1cnc(-c2ccc(C(=O)N[C@H](C(=O)NO)C(C)(C)NS(C)(=O)=O)cc2)nc1`: the results for the minimum inhibitory concentration (MIC) in the series with Klebsiella pneumoniae, against Pseudomonas aeruginosa and in the series on Escherichia coli were > 128 µg/mL, 16 µg/mL (≈ 38 µM) and 64 µg/mL (≈ 152 µM), respectively. Also, the 50% inhibitory concentration (IC50) in series [1] was > 10000 nM.
For `CC(C)(NS(C)(=O)=O)[C@H](NC(=O)c1ccc(-c2cc3cc4c(cc3o2)OCO4)cc1)C(=O)NO`, the MIC is 0.5 µg/mL (≈ 1.02 µM) in the series with Klebsiella pneumoniae, 0.5 µg/mL (≈ 1.02 µM) in the series with Pseudomonas aeruginosa, 0.063 µg/mL (≈ 0.129 µM) with Escherichia coli and > 32 µg/mL against Staphylococcus aureus. The half-inhibitory concentration (IC50) in series [1] stood at 12 nM.
Regarding `CN(C)CCOc1ccc2cc(-c3ccc(C(=O)N[C@H](C(=O)NO)C(C)(C)NS(C)(=O)=O)cc3)oc2c1`, the MIC in the series with Klebsiella pneumoniae was 32 µg/mL (≈ 60.1 µM); in the series on Pseudomonas aeruginosa, 8 µg/mL (≈ 15 µM); against Escherichia coli, 4 µg/mL (≈ 7.51 µM); with Staphylococcus aureus, > 128 µg/mL. In addition, the half-inhibitory concentration (IC50) in series [1] was 22 nM.
The corresponding values for `CC(C)(NS(C)(=O)=O)[C@H](NC(=O)c1ccc(-c2cc3ccncc3o2)cc1)C(=O)NO` are 128 µg/mL (≈ 287 µM), 8 µg/mL (≈ 17.9 µM), 8 µg/mL (≈ 17.9 µM), > 128 µg/mL and 1400 nM.
Consider `Cc1ccc(-c2ccc(C(=O)N[C@H](C(=O)NO)C(C)(C)NS(C)(=O)=O)cn2)cc1`, for which the MIC against Klebsiella pneumoniae came out at 64 µg/mL (≈ 152 µM); against Pseudomonas aeruginosa, 4 µg/mL (≈ 9.51 µM); in the series on Escherichia coli it was 8 µg/mL (≈ 19 µM). Moreover, half-maximal inhibition in series [1] (IC50) was put at 1500 nM.
The corresponding values for `Cc1ncc(-c2ccc(C(=O)N[C@H](C(=O)NO)C(C)(C)NS(C)(=O)=O)cc2)cn1` are > 128 µg/mL, > 128 µg/mL, > 128 µg/mL and > 10000 nM.
